Broadly, the pIC50 is the negative decadic logarithm of the IC50, by convention in mol/L. In general, inhibition refers to the share of the control response that was lost under treatment.

pIC50: −log10 of the molar value.

The test system of one assay is Leishmania amazonensis. In words: Antileishmanial activity against Leishmania amazonensis WHOM/BR/75/Josefa amastigotes after 72 hrs by Neubauer chamber method. It is filed as functional, organism-based.
Details: not given
In turn, `C=C1CC[C@H]2[C@@](C)(CCC[C@@]2(C)C(=O)O)[C@@H]1CC/C(C)=C/C(=O)O` gave a negative-log IC50 (pIC50) of 4.29 to 4.32.

In the case of `C=C1C[C@@]23CC[C@H]4[C@@](C)(CCC[C@@]4(C)C(=O)O)[C@@H]2CC[C@@H]1C3` [KAURENOIC ACID], the pIC50 is 4.93.

In the next assay the test system is Leishmania braziliensis. In words: Antileishmanial activity against Leishmania braziliensis H3227 MHOM/BR/94/H-3227 promastigotes after 72 hrs by MTT assay. Type of assay: functional, organism-based. To be noted: H3227 MHOM/BR/94/H-3227, 72 h.
Molecule `C=C1C(=O)O[C@@H]2/C=C(/C)C(=O)[C@@H]3O[C@H]3[C@](C)(O)C[C@@H](OC(=O)C(C)C)[C@@H]12` gave a pIC50 of 5.22.

`C=C1C(=O)O[C@@H]2/C=C(/C)C(=O)/C=C/[C@](C)(O)C[C@@H](OC(=O)C(C)C)[C@@H]12` [TAGITININ C] gave a pIC50 of 5.04.

For another assay, the system named is Leishmania amazonensis. As to the kind of experiment: Antileishmanial activity against Leishmania amazonensis WHOM/BR/75/Josefa promastigotes after 72 hrs by Neubauer chamber method.
Details: not given
It is filed as functional, organism-based.
Consider `C=C1CC[C@H]2[C@@](C)(CCC[C@@]2(C)C(=O)O)[C@@H]1CC/C(C)=C/C(=O)O`, for which the pIC50 is 3.96 to 4.08.

`C=C1C[C@@]23CC[C@H]4[C@@](C)(CCC[C@@]4(C)C(=O)O)[C@@H]2CC[C@@H]1C3` [KAURENOIC ACID]: the pIC50 was 4.03.

Another assay deals with T1, Dihydroorotate dehydrogenase (fumarate) (Leishmania major, UniProt Q4QEW7).
T1 sequence (Q4QEW7 whole entry): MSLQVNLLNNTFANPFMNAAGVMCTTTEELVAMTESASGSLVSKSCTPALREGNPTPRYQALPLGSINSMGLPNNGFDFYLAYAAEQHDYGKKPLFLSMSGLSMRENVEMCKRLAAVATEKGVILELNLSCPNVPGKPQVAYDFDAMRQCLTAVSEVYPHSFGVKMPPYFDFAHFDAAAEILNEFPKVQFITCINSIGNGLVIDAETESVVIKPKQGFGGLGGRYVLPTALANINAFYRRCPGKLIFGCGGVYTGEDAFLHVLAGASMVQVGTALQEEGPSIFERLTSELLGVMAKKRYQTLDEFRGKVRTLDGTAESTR
As to the kind of experiment: Inhibition of recombinant oligo-histidine-tagged Leishmania major DHODH expressed in Escherichia coli BL21(DE3) cells using DHO as substrate measured after 60 secs. To be noted: read-out: IC50.
Take `C=C1CC[C@H]2[C@@](C)(CCC[C@@]2(C)C(=O)O)[C@@H]1CC/C(C)=C/C(=O)O`: the pIC50 was 3.15.

For the molecule `C=C1C(=O)O[C@@H]2/C=C(/C)C(=O)[C@@H]3O[C@H]3[C@](C)(O)C[C@@H](OC(=O)C(C)C)[C@@H]12`, the pIC50 was 3.99.

As for `CC[C@H]1CN2CCc3cc(OC)c(OC)cc3[C@@H]2C[C@@H]1C[C@H]1NCCc2cc(OC)c(OC)cc21` [EMETINE], the pIC50 was 2.97.

`C=C1C[C@@]23CC[C@H]4[C@@](C)(CCC[C@@]4(C)C(=O)O)[C@@H]2CC[C@@H]1C3` [KAURENOIC ACID]: the pIC50 is 4.50.

`O=c1c(O)c(-c2ccc(O[C@@H]3O[C@H](CO)[C@@H](O)[C@H](O)[C@H]3O)c(O)c2)oc2cc(O)cc(O)c12` [SPIRAEOSIDE]: the pIC50 was 3.79.

Turning to `C=C1C(=O)O[C@@H]2/C=C(/C)C(=O)/C=C/[C@](C)(O)C[C@@H](OC(=O)C(C)C)[C@@H]12` [TAGITININ C], the pIC50 is 3.37.

The test system of a further assay is Trypanosoma brucei. In words: Antitrypanosomal activity against Trypanosoma brucei TC221 trypomastigotes after 24 hrs by Alamar Blue assay. To be noted: TC221, 24 h. Type of assay: functional, organism-based.
In the case of `CC[C@H]1CN2CCc3cc(OC)c(OC)cc3[C@@H]2C[C@@H]1C[C@H]1NCCc2cc(OC)c(OC)cc21` [EMETINE], the pIC50 is 7.40.

The target in the next assay is Dihydroorotate dehydrogenase (quinone), mitochondrial (Homo sapiens) (UniProt Q02127). As to the kind of experiment: Inhibition of human DHODH at 100 uM.
Chain of Dihydroorotate dehydrogenase (quinone), mitochondrial (Homo sapiens) (Q02127 whole entry): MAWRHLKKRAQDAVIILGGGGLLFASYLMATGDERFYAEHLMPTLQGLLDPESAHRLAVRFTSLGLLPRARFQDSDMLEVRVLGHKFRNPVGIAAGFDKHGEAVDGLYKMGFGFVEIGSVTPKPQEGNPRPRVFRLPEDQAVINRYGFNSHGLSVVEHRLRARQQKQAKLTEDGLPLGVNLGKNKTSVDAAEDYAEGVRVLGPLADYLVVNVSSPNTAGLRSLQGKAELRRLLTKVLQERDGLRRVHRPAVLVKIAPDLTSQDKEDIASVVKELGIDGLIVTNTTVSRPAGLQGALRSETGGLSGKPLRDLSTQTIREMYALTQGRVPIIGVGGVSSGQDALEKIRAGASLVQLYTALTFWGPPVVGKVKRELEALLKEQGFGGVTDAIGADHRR
Details: not given
`C=C1C(=O)O[C@@H]2/C=C(/C)C(=O)[C@@H]3O[C@H]3[C@](C)(O)C[C@@H](OC(=O)C(C)C)[C@@H]12` came in with an inhibition of 12%.

In the case of `C=C1C[C@@]23CC[C@H]4[C@@](C)(CCC[C@@]4(C)C(=O)O)[C@@H]2CC[C@@H]1C3` [KAURENOIC ACID], the inhibition came out at 28%.

For the molecule `O=c1c(O)c(-c2ccc(O[C@@H]3O[C@H](CO)[C@@H](O)[C@H](O)[C@H]3O)c(O)c2)oc2cc(O)cc(O)c12` [SPIRAEOSIDE], the inhibition came out at 16%.

Another assay addresses T2, Dihydroorotate dehydrogenase (fumarate) (Leishmania major) (UniProt Q4QEW7).
T2 sequence (whole entry): T1 sequence (Q4QEW7 whole entry)
In words: Inhibition of recombinant oligo-histidine-tagged Leishmania major DHODH expressed in Escherichia coli BL21(DE3) cells at 100 uM using DHO as substrate measured after 60 secs.
Details: not given
As for `C=C1C(=O)O[C@@H]2/C=C(/C)C(=O)[C@@H]3O[C@H]3[C@](C)(O)C[C@@H](OC(=O)C(C)C)[C@@H]12`, the inhibition was determined as 42%.

`C=C1C[C@@]23CC[C@H]4[C@@](C)(CCC[C@@]4(C)C(=O)O)[C@@H]2CC[C@@H]1C3` [KAURENOIC ACID]: the inhibition was found to be 40%.

Regarding `O=c1c(O)c(-c2ccc(O[C@@H]3O[C@H](CO)[C@@H](O)[C@H](O)[C@H]3O)c(O)c2)oc2cc(O)cc(O)c12` [SPIRAEOSIDE], the inhibition is 35%.

The next assay has as its system Trypanosoma congolense. As to the kind of experiment: Antitrypanosomal activity against Trypanosoma congolense STIB 910 trypomastigotes after 24 hrs by Alamar Blue assay. It is filed as functional, organism-based. To be noted: STIB 910, 24 h. (Alamar Blue is a resazurin reagent that responds to reducing activity.)
With `CC[C@H]1CN2CCc3cc(OC)c(OC)cc3[C@@H]2C[C@@H]1C[C@H]1NCCc2cc(OC)c(OC)cc21` [EMETINE], the pIC50 was 6.37.

Values taken from ChEMBL document CHEMBL4261582, “Natural products as inhibitors of Leishmania major dihydroorotate dehydrogenase” (Eur J Med Chem, 2018).
